Drawing on patent US5543406A, “Inhibitors of 5-α-testosterone reductase” (priority 1994, dated 1996), this text covers IC50 for four molecules.

Bounds are passed on as bounds.

For test [1], the target named is T1, Steroid 5-α-Reductase (Homo sapiens, UniProt P31213).
T1 construct: microsomes derived from prostate tissue of benign prostatic hypertrophy (BPH) patients; from tissue; host or cells: prostate tissue of BPH patients, microsomes
T1 sequence (P31213 1-254): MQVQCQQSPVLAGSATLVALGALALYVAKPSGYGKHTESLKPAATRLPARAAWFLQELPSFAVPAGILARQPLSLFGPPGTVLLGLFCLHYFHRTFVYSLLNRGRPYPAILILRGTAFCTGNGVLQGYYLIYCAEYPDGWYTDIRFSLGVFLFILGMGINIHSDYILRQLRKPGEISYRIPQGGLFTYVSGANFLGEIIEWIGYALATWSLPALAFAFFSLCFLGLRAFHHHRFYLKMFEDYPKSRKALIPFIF
The test can be described thus: Steroid 5-α-reductase in vitro assay, human prostate microsomes (BPH patients). The class given is biochemical. Particulars: human prostatic microsomes; 100 nM [3H]-testosterone, 1 mM NADPH, 60 minutes at 37° C.

Test [2] concerns the target Steroid 5-α-Reductase. Nature of the test: Steroid 5-α-reductase in vitro assay, rat prostate microsomes. Conditions: rat prostatic microsomes; 100 nM [3H]-testosterone, 1 mM NADPH, 60 minutes at 37° C.; read-out: ID50 Rat. The test is classed as biochemical.

Turning to `CCN(CC)C(=O)[C@H]1CC[C@H]2[C@@H]3CCNC4=CC(=O)CC[C@]4(C)[C@H]3CC[C@]12C` [Compound 77, 17β-N,N-Diethylcarbamoyl-6-aza-B-homoandrost-4-en-3-one], the IC50 was in the range of 10 to 100 nM against Steroid 5-α-Reductase [1] and 100 to 1000 nM at Steroid 5-α-Reductase [2].

Turning to `CON(C)C(=O)[C@H]1CC[C@H]2[C@@H]3CNC4=CC(=O)CC[C@]4(C)[C@H]3CC[C@]12C` [Compound 21, 17β-N-Methoxy-N-methylcarbamoyl-6-azaandrost-4-en-3-one], the IC50 is less than 10 nM against Steroid 5-α-Reductase [1] and 100 to 1000 nM on Steroid 5-α-Reductase [2].

For the molecule `CC1=C2NC[C@H]3[C@@H]4CC[C@H](C(=O)NC56CC7CC(CC(C7)C5)C6)[C@@]4(C)CC[C@@H]3[C@@]2(C)CCC1=O` [Compound 56, 17β-N-1-Adamantylcarbamoyl-6-azaandrost-4-methyl-4-en-3-one], the IC50 against Steroid 5-α-Reductase [1] is 10 to 100 nM; at Steroid 5-α-Reductase [2], less than 10 nM.

Turning to `C[C@]12CC[C@H]3[C@@H](CNC4=CC(=O)CC[C@@]43C)[C@@H]1CC[C@@H]2C(=O)Sc1ccccn1` [Compound 4, 17β-(2-Pyridinylthiocarbonyl)-6-azaandrost-4-en-3-one], the IC50 against Steroid 5-α-Reductase [1] was less than 10 nM; at Steroid 5-α-Reductase [2] it was 100 to 1000 nM.
